The values that follow are results of earlier work, collected in patent US20090062391A1, “Use of a virucidal ointment in the nares for prevention of transmission and contraction of common colds” (priority 2007, published 2009).

For series [1], the system named is rhinovirus. To be noted: Hendley et al. [4].
In series [2] the test system is viruses which cause colds. The settings on record: for effectiveness against viruses which cause colds: organic acid; for effectiveness at inactivating cold viruses: surfactant combined with organic acids.
In series [3] the test system is rhinovirus. To be noted: hand lotions containing 2% glutaric acid, versus placebo; Hayden et al. [6].
Series [4] deals with common colds. The settings on record: in vivo.
For series [5] the following is noted: frequent application.
The test system of series [6] is adenovirus. The settings on record: Poli et al. [5]; only naked virus tested.
In series [7] the test system is rhabdovirus. The settings on record: Poli et al. [5].
In series [8] the test system is herpes simplex virus. To be noted: Poli et al. [5].

As for benzalkonium chloride, the antiviral activity result in series [1] was “performed poorly”.
As to `CCCCC(=O)O` [valeric acid], the “effectiveness against viruses which cause colds” value in series [2] is reported as “effective”.
As to `N[C@@H](CC(=O)O)C(=O)O` [aspartic acid], in series [2], the “effectiveness against viruses which cause colds” value is on record as “effective”.
Regarding `O=C(O)CCCC(=O)O` [glutaric acid], in series [3], the “inactivating certain serotypes of rhinovirus” value is given as “more effective than placebo”.
In the case of `CCO` [ethyl alcohol], in series [1], the antiviral activity result is reported as “performed poorly”.
`CC(O)C(=O)O` (centres unmarked) [lactic acid]: the “effectiveness against viruses which cause colds” value in series [2] was “effective”.
As for `CCCCCCCCOC(=O)CC(C(=O)OCCCCCCCC)S(=O)(=O)O.[Na]` (centres unmarked) [sodium dioctyl sulfosuccinate], in series [2], the “effectiveness at inactivating cold viruses” value is recorded as “demonstrated effectiveness”.
In the case of `[Zn]` [zinc], the “duration of common colds” value in series [4] is on record as “shorten the duration”.
Regarding `II` [iodine], the “irritation of the skin” value in series [5] is listed as “too irritating to the skin”.
`O=C(O)CC(O)(CC(=O)O)C(=O)O` [citric acid]: in series [6], the “antiviral activity against adenovirus” value is “not effective”. Besides, the “antiviral activity against rhabdovirus” value in series [7] is “effective”. Also, the “antiviral activity against herpes simplex virus” value in series [8] was “effective”. Further, the “effectiveness against viruses which cause colds” value in series [2] is listed as “effective”.
On to `O=C(O)CCC(=O)O` [succinic acid], for which the “antiviral activity against adenovirus” value in series [6] is recorded as “not effective”. In series [7], the “antiviral activity against rhabdovirus” value was “effective”. In series [8], the “antiviral activity against herpes simplex virus” value is listed as “effective”.
`CCCCCCCCCCCCOS(=O)(=O)[O-].[Na+]` [sodium dodecyl sulfate]: the “effectiveness at inactivating cold viruses” value in series [2] was “demonstrated effectiveness”.
For `O=C(O)CO` [glycolic acid], the “effectiveness against viruses which cause colds” value in series [2] is given as “effective”.
For the compound `CC(=O)C(=O)O` [pyruvic acid], in series [6], the “antiviral activity against adenovirus” value is “not effective”. Besides, in series [7], the “antiviral activity against rhabdovirus” value was “effective”. In series [8], the “antiviral activity against herpes simplex virus” value was “effective”.
As to `CCCCCCCCC(=O)O` [pelargonic acid], the “effectiveness against viruses which cause colds” value in series [2] is on record as “effective”.
Consider `O=C(O)CC(O)C(=O)O` (centres unmarked) [malic acid], for which the “antiviral activity against adenovirus” value in series [6] is “not effective”. The “antiviral activity against rhabdovirus” value in series [7] is given as “effective”. Further, in series [8], the “antiviral activity against herpes simplex virus” value is on record as “effective”. In series [2], the “effectiveness against viruses which cause colds” value was “effective”.
